Where “and” joins values, the source holds several entries; their conditions need not be identical. Equal entries are not always repeated. Toxic doses and inconclusive results are not listed.

These results are taken from PubChem BioAssay AID330 (DTP/NCI, 2004).

For the assay, the system named is P388 leukemia ip, CD2F1 mice, survival T/C. Briefly: NCI In Vivo Anticancer Drug Screen. Data for tumor model P388 Leukemia (intraperitoneal) in CD2F1 (CDF1) mice. To be noted: endpoint: median survival time, higher = longer survival. How it is done: The antitumor activity of compounds was measured in mice bearing transplantable tumors. Survival or tumor size were measured and the results are expressed as the measurement made in the treated group (T) divided by the measurement made in the vehicle treated control group (C). The tumor model used in this assay is P388 Leukemia (intraperitoneal) in CD2F1 (CDF1) mice

[1] abbreviates: dose: 60.0 mg/kg/injection, schedule: Q01DX005 (ip), vehicle: saline with Tween-80.
Setting [2] is: dose: 120.0 mg/kg/injection, schedule: Q01DX005 (ip), vehicle: saline with Tween-80.
Setting [3] is: dose: 240.0 mg/kg/injection, schedule: Q01DX005 (ip), vehicle: saline with Tween-80.
The mark [4] stands for this setting: dose: 60.0 mg/kg/injection, schedule: Q01DX005 (ip), vehicle: Klucel (hydroxypropylcellulose) (HPC).
[5] abbreviates: dose: 120.0 mg/kg/injection, schedule: Q01DX005 (ip), vehicle: Klucel (hydroxypropylcellulose) (HPC).
Setting [6] is: dose: 240.0 mg/kg/injection, schedule: Q01DX005 (ip), vehicle: Klucel (hydroxypropylcellulose) (HPC).
Setting [7] is: dose: 100.0 mg/kg/injection, schedule: Q01DX009 (ip), vehicle: saline with Tween-80.
[8] abbreviates: dose: 200.0 mg/kg/injection, schedule: Q01DX009 (ip), vehicle: saline with Tween-80.
[9] abbreviates: dose: 100.0 mg/kg/injection, schedule: Q04DX003 (ip), vehicle: saline.
Setting [10] is: dose: 200.0 mg/kg/injection, schedule: Q04DX003 (ip), vehicle: saline.
Where [11] appears, read: dose: 400.0 mg/kg/injection, schedule: Q04DX003 (ip), vehicle: saline.
The mark [12] stands for this setting: dose: 50.0 mg/kg/injection, schedule: Q01DX009 (ip), vehicle: saline with Tween-80.

Take `O=C(CC(O)(C(F)(F)F)C(F)(F)F)c1cccs1`: the T/C reads like this: (dose: 50.0 mg/kg/injection, schedule: Q04DX003 (ip), vehicle: saline with Tween-80) 116 % of control; (dose: 100.0 mg/kg/injection, schedule: Q04DX003 (ip), vehicle: saline with Tween-80) 100 % of control.

Take `O=C(NC(O)C(=O)O)c1ccc(Cl)cc1` (stereo not drawn): the T/C under setting [1] is 97 % of control, the T/C under setting [2] is 95 % of control and the T/C under setting [3] is 97 % of control.

As for `COc1cc2c(cc1OC)C(=O)c1nccc3ccc(OC)c(c13)O2`, the T/C was 100 % of control (dose: 6.75 mg/kg/injection, schedule: Q01DX005 (ip), vehicle: Klucel (hydroxypropylcellulose) (HPC)); 92 % of control (dose: 13.5 mg/kg/injection, schedule: Q01DX005 (ip), vehicle: Klucel (hydroxypropylcellulose) (HPC)); 101 % of control (dose: 27.0 mg/kg/injection, schedule: Q01DX005 (ip), vehicle: Klucel (hydroxypropylcellulose) (HPC)); 92 % of control (dose: 54.0 mg/kg/injection, schedule: Q01DX005 (ip), vehicle: Klucel (hydroxypropylcellulose) (HPC)).

For the compound `CC1(C)Nc2ccccc2C(c2ccccc2)=NC1=O`, the T/C is 101 % of control and 102 % of control under setting [4]; 105 % of control and 98 % of control under setting [5]; 104 % of control and 91 % of control under setting [6].

As to `CC1CC23C4CCCN2CC2OC2C13C1CC4OC1=O` (stereo not drawn), the T/C is 114 % of control (dose: 12.5 mg/kg/injection, schedule: Q01DX009 (ip), vehicle: Klucel (hydroxypropylcellulose) (HPC)); 113 % of control (dose: 25.0 mg/kg/injection, schedule: Q01DX009 (ip), vehicle: Klucel (hydroxypropylcellulose) (HPC)); 115 % of control (dose: 50.0 mg/kg/injection, schedule: Q01DX009 (ip), vehicle: Klucel (hydroxypropylcellulose) (HPC)); 113 % of control (dose: 100.0 mg/kg/injection, schedule: Q01DX009 (ip), vehicle: Klucel (hydroxypropylcellulose) (HPC)).

Regarding `CN1CCN=C1c1ccc(NC(=O)c2ccc(C(=O)Nc3ccc(C4=NCCN4C)cc3)cc2)cc1`, the T/C (dose: 0.4 mg/kg/injection, schedule: Q01DX009 (ip), vehicle: saline with Tween-80) is 108 % of control; the T/C (dose: 3.0 mg/kg/injection, schedule: Q01DX009 (ip), vehicle: saline with Tween-80) was 150 % of control; the T/C (dose: 4.0 mg/kg/injection, schedule: Q01DX009 (ip), vehicle: saline) is 166 % of control; the T/C (dose: 6.0 mg/kg/injection, schedule: Q01DX009 (ip), vehicle: saline with Tween-80) was 204 % of control; the T/C (dose: 6.0 mg/kg/injection, schedule: Q01DX009 (ip), vehicle: saline) was 187 % of control; the T/C (dose: 6.25 mg/kg/injection, schedule: Q04DX003 (ip), vehicle: saline with Tween-80) is 118 % of control. Also, the T/C (dose: 9.0 mg/kg/injection, schedule: Q01DX009 (ip), vehicle: saline) is 191 % of control.

`O=C(c1ccc(-c2ccccc2)cc1)C1(Br)CCCCC1`: the T/C under setting [7] was 100 % of control; the T/C under setting [8] was 100 % of control; the T/C (dose: 400.0 mg/kg/injection, schedule: Q01DX009 (ip), vehicle: saline with Tween-80) is 100 % of control.

On to `Cc1ccc[n+](CCC(N)=O)c1`, for which the T/C runs as follows: under setting [9], 100 % of control; under setting [10], 100 % of control; under setting [11], 95 % of control.

Turning to `COc1ccc(-c2nn(-c3ccccc3)cc2Oc2ccccc2O)cc1`, the T/C by setting is: under setting [1], 104 % of control; under setting [2], 102 % of control; under setting [3], 96 % of control.

In the case of `CN(C)C(=C1C=CC=C/C1=N/S(=O)(=O)c1ccccc1)N(C)C`, the T/C by setting is: under setting [9], 103 % of control; under setting [10], 108 % of control; under setting [11], 105 % of control.

In the case of `COc1ccc2ccccc2c1/C=[N+](/[O-])c1ccccc1`, the T/C runs as follows: under setting [4], 109 % of control; under setting [5], 110 % of control; under setting [6], 112 % of control.

`O=C(Oc1ccc[nH]c1=O)C1CCC1`: the T/C by setting is: (dose: 50.0 mg/kg/injection, schedule: Q01DX005 (ip), vehicle: Klucel (hydroxypropylcellulose) (HPC)) 102 % of control and 92 % of control; (dose: 100.0 mg/kg/injection, schedule: Q01DX005 (ip), vehicle: Klucel (hydroxypropylcellulose) (HPC)) 102 % of control and 90 % of control; (dose: 200.0 mg/kg/injection, schedule: Q01DX005 (ip), vehicle: Klucel (hydroxypropylcellulose) (HPC)) 100 % of control and 91 % of control; (dose: 400.0 mg/kg/injection, schedule: Q01DX005 (ip), vehicle: Klucel (hydroxypropylcellulose) (HPC)) 100 % of control and 103 % of control.

Turning to `Cc1ccc(C)c2c(Nc3ccc4c(c3)OCO4)c(C(=O)O)cnc12`, the T/C is, setting by setting: (dose: 60.0 mg/kg/injection, schedule: Q01DX005 (ip), vehicle: Klucel + Tween-80) 95 % of control; (dose: 120.0 mg/kg/injection, schedule: Q01DX005 (ip), vehicle: Klucel + Tween-80) 93 % of control.

With `Nc1nc(N)c2nc(CNc3ccc(Cl)c(Cl)c3)cnc2n1`, the T/C (dose: 15.0 mg/kg/injection, schedule: Q01DX005 (ip), vehicle: saline with Tween-80) was 98 % of control and the T/C (dose: 30.0 mg/kg/injection, schedule: Q01DX005 (ip), vehicle: saline with Tween-80) was 89 % of control.

On to `Cc1c2oc3c(C)ccc(C(=O)NC(C(=O)NC(C(=O)O)C(C)C)C(C)O)c3nc-2c(C(=O)NC(C(=O)NC(C(=O)O)C(C)C)C(C)O)c(N)c1=O` (stereo not drawn), for which the T/C was 100 % of control (dose: 0.05 mg/kg/injection, schedule: Q01DX009 (ip), vehicle: water); 97 % of control (dose: 0.1 mg/kg/injection, schedule: Q01DX009 (ip), vehicle: water); 94 % of control (dose: 0.2 mg/kg/injection, schedule: Q01DX009 (ip), vehicle: water); 99 % of control (dose: 0.4 mg/kg/injection, schedule: Q01DX009 (ip), vehicle: water); 97 % of control (dose: 0.8 mg/kg/injection, schedule: Q01DX009 (ip), vehicle: water); 102 % of control (dose: 1.6 mg/kg/injection, schedule: Q01DX009 (ip), vehicle: water).

`Cc1cc(=O)oc2c1ccc1occc(=O)c12`: the T/C is 96 % of control under setting [1], 102 % of control under setting [2] and 100 % of control under setting [3].

Consider `Cc1cc(OC2OC(CO)C(OC3OC(CO)C(O)C(O)C3O)C(O)C2O)c2c(c1)C(=O)c1cccc(O)c1C2=O` (stereo not drawn), for which the T/C was 104 % of control under setting [12], 104 % of control under setting [7] and 105 % of control under setting [8].

As for `C=CB(OCCC)OCCC`, the T/C reads like this: (dose: 50.0 mg/kg/injection, schedule: Q01DX009 (ip), vehicle: saline) 92 % of control; (dose: 100.0 mg/kg/injection, schedule: Q01DX009 (ip), vehicle: saline) 92 % of control; (dose: 200.0 mg/kg/injection, schedule: Q01DX009 (ip), vehicle: saline) 88 % of control.

On to `O=C1OCC/C1=C/OS(=O)(=O)C(F)(F)F`, for which the T/C reads like this: (dose: 18.8 mg/kg/injection, schedule: Q01DX009 (ip), vehicle: distilled water + Tween-80) 101 % of control and 107 % of control; (dose: 37.5 mg/kg/injection, schedule: Q01DX009 (ip), vehicle: distilled water + Tween-80) 110 % of control; (dose: 75.0 mg/kg/injection, schedule: Q01DX009 (ip), vehicle: distilled water + Tween-80) 118 % of control and 123 % of control.

For the compound `C=C(C)C1CNC(C(=O)O)C1CC(=O)O` (stereo not drawn), the T/C is 105 % of control (dose: 6.25 mg/kg/injection, schedule: Q01DX009 (ip), vehicle: saline sonified); 90 % of control (dose: 12.5 mg/kg/injection, schedule: Q01DX009 (ip), vehicle: saline sonified); 100 % of control (dose: 25.0 mg/kg/injection, schedule: Q01DX009 (ip), vehicle: saline sonified).

In the case of `COc1ccc2ccc3nonc3c2c1`, the T/C by setting is: (dose: 50.0 mg/kg/injection, schedule: Q01DX005 (ip), vehicle: saline with Tween-80) 92 % of control; (dose: 100.0 mg/kg/injection, schedule: Q01DX005 (ip), vehicle: saline with Tween-80) 99 % of control; (dose: 200.0 mg/kg/injection, schedule: Q01DX005 (ip), vehicle: saline with Tween-80) 91 % of control.

With `COC1/C=C/OC2(C)Oc3c(C)c(O)c4c(O)c(c(C5SCCS5)c(O)c4c3C2=O)NC(=O)/C(C)=C\C=C\C(C)C(O)C(C)C(O)C(C)C(O)C1C` (stereo not drawn), the T/C is 97 % of control under setting [12], 102 % of control under setting [7] and 96 % of control under setting [8].
